Assay results published in the supplement of paper PMC10307832.

Legend:
Experiment in all cases: relative viability (nuclei count vs DMSO), 5 days (fraction); higher = more cells survive
[1] = compound: CC(O)(CS(=O)(=O)c1ccc(F)cc1)C(=O)Nc1ccc(C#N)c(C(F)(F)F)c1 [Bicalutamide] + CC(=O)c1c(C)c2cnc(Nc3ccc(N4CCNCC4)cn3)nc2n(C2CCCC2)c1=O [Palbociclib] (partner 0.5 µM)
Method in brief: (§1)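 Dosing by pin tool came one day after lung cancer cell lines were seeded in 1536-well plates, using either one drug or a fixed anchor-drug dose plus five library-drug doses (not always all listed) in √10 steps. After 5 days, nuclei were counted on 4× images. Relative viability is treated-well nuclei count divided by vehicle-well nuclei count, and values are medians of duplicate plates.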

[2] = compound: C(C(=O)C(=O)O)Br [Bromopyruvate] + Cc1cc(Nc2cc(N3CCN(C)CC3)nc(Sc3ccc(NC(=O)C4CC4)cc3)n2)n[nH]1 [Tozasertib] (partner 0.1 µM)
Method in brief: as §1

[3] = compound: CC(O)(CS(=O)(=O)c1ccc(F)cc1)C(=O)Nc1ccc(C#N)c(C(F)(F)F)c1 [Bicalutamide] + CC1(C)CCC(c2ccc(Cl)cc2)=C(CN2CCN(c3ccc(C(=O)NS(=O)(=O)c4ccc(N[C@H](CCN5CCOCC5)CSc5ccccc5)c(S(=O)(=O)C(F)(F)F)c4)cc3)CC2)C1 [Navitoclax] (partner 0.5 µM)
Method in brief: as §1

[4] = compound: CC(O)(CS(=O)(=O)c1ccc(F)cc1)C(=O)Nc1ccc(C#N)c(C(F)(F)F)c1 [Bicalutamide] + C[C@]1(O)C[C@@H](c2nc(-c3ccc4ccc(-c5ccccc5)nc4c3)c3c(N)nccn32)C1 [Linsitinib] (partner 1 µM)
Method in brief: as §1

| Cell Line | relative viability ([1]; first compound 0.08 µM) | relative viability ([1]; first compound 0.253 µM) | relative viability ([1]; first compound 0.8 µM) | relative viability ([1]; first compound 2.53 µM) | relative viability ([2]; first compound 1 µM) | relative viability ([2]; first compound 3.162 µM) | relative viability ([2]; first compound 10 µM) | relative viability ([2]; first compound 31.62 µM) | relative viability ([2]; first compound 100 µM) | relative viability ([3]; first compound 0.08 µM) | relative viability ([3]; first compound 0.253 µM) | relative viability ([3]; first compound 0.8 µM) | relative viability ([3]; first compound 2.53 µM) | relative viability ([4]; first compound 0.08 µM) | relative viability ([4]; first compound 0.253 µM) | relative viability ([4]; first compound 0.8 µM) | relative viability ([4]; first compound 2.53 µM) |
| --- | --- | --- | --- | --- | --- | --- | --- | --- | --- | --- | --- | --- | --- | --- | --- | --- | --- |
| NCI-H1651 | 0.526 | 0.515 | 0.582 | 0.518 | 0.634 | 0.718 | 0.665 | 0.701 | 0.652 | 0.89 | 0.957 | 0.956 | 0.951 | 0.966 | 0.903 | 1.1 | 0.913 |
| NCI-H1944 | 0.335 | 0.299 | 0.354 | 0.323 | 0.224 | 0.266 | 0.243 | 0.283 | 0.273 | 1.04 | 1.08 | 1.08 | 1.03 | 1.07 | 1.15 | 1.27 | 1.14 |
| A-427 | 0.547 | 0.54 | 0.56 | 0.526 | 0.22 | 0.216 | 0.176 | 0.162 | 0.151 | 0.986 | 1.03 | 0.98 | 0.927 | 1.16 | 1.15 | 1.21 | 1.18 |
| NCI-H2405 | 0.555 | 0.506 | 0.581 | 0.486 | 0.806 | 0.779 | 0.723 | 0.804 | 0.785 | 0.948 | 0.816 | 0.987 | 0.925 | 0.897 | 0.873 | 1.06 | 0.901 |
| NCI-H1355 | 0.4 | 0.382 | 0.437 | 0.374 | 0.529 | 0.577 | 0.516 | 0.548 | 0.574 | 1.06 | 0.919 | 0.928 | 0.983 | 0.781 | 0.782 | 0.957 | 0.805 |
| RERF-LC-KJ | 1.08 | 1.05 | 1.17 | 0.865 | 0.508 | 0.491 | 0.433 | 0.517 | 0.413 | 0.951 | 0.98 | 0.793 | 0.799 | 0.868 | 0.85 | 0.94 | 0.904 |
| NCI-H23 | 0.529 | 0.503 | 0.515 | 0.471 | 0.347 | 0.388 | 0.361 | 0.291 | 0.105 | 0.86 | 0.642 | 0.949 | 0.754 | 0.584 | 0.526 | 0.498 | 0.454 |
| HOP-62 | 0.47 | 0.464 | 0.566 | 0.502 | 0.39 | 0.386 | 0.381 | 0.339 | 0.351 | 1.03 | 1.12 | 1.03 | 0.982 | 0.89 | 0.903 | 0.963 | 1.02 |
| HARA | 0.246 | 0.262 | 0.329 | 0.242 | 0.13 | 0.122 | 0.0899 | 0.13 | 0.102 | 1.15 | 1.15 | 1.11 | 1.13 | 0.953 | 0.797 | 1.06 | 1.1 |
| PC-14 | 0.583 | 0.466 | 0.677 | 0.422 | 0.598 | 0.566 | 0.633 | 0.633 | 0.628 | 0.948 | 0.944 | 1.02 | 1.08 | 0.968 | 0.967 | 0.976 | 1.04 |
| NCI-H1755 | 0.472 | 0.42 | 0.473 | 0.43 | 0.59 | 0.568 | 0.495 | 0.702 | 0.693 | 0.98 | 0.956 | 1.02 | 0.961 | 0.99 | 0.988 | 1.02 | 0.958 |
| HCC-78 | 0.464 | 0.513 | 0.499 | 0.476 | 0.375 | 0.404 | 0.481 | 0.311 | 0.536 | 0.825 | 0.862 | 0.893 | 0.687 | 0.585 | 0.462 | 0.599 | 0.445 |
| NCI-H441 | 0.33 | 0.142 | 0.24 | 0.202 | 0.597 | 0.614 | 0.605 | 0.615 | 0.565 | 0.551 | – | 0.622 | 0.518 | 0.6 | – | 0.863 | 0.404 |
| NCI-H322M | 0.515 | 0.482 | 0.464 | 0.524 | 0.433 | 0.546 | 0.495 | 0.461 | 0.484 | 1.3 | 1.18 | 1.28 | 1.22 | 0.94 | 0.976 | 1.02 | 1.04 |
| NCI-H1993 | 0.642 | 0.513 | 0.793 | 0.772 | 0.626 | 0.629 | 0.697 | 0.578 | 0.598 | – | 0.896 | 0.912 | 1.02 | – | 0.77 | 0.707 | 0.738 |
| COR-L23 | 0.359 | 0.293 | 0.353 | 0.269 | 0.198 | 0.202 | 0.183 | 0.204 | 0.0755 | 1.17 | 1.02 | 1.11 | 0.898 | 0.997 | 0.919 | 1.16 | 0.732 |
| NCI-H2126 | 0.339 | 0.339 | 0.344 | 0.32 | 0.881 | 0.858 | 0.825 | 0.879 | 0.783 | 0.929 | 0.806 | 0.873 | 0.847 | 0.737 | 0.724 | 0.731 | 0.68 |
| LC-2-ad | 0.475 | 0.473 | 0.464 | 0.516 | 0.45 | 0.475 | 0.486 | 0.438 | 0.428 | 0.484 | 0.484 | 0.449 | 0.475 | 0.818 | 0.796 | 0.847 | 0.891 |
| NCI-H1915 | 0.534 | 0.463 | 0.595 | 0.473 | 0.438 | 0.455 | 0.445 | 0.444 | 0.392 | 0.815 | 0.76 | 0.804 | 0.812 | 1.11 | 1.13 | 1.1 | 1.03 |
